In experiment [1] the target is T1, GSK3α (Homo sapiens, UniProt P49840).
T1 construct: purchased PV3322/30387A
As to the kind of experiment: Z′-Lyte TR-FRET kinase assay, GSK3α. The format is biochemical. The conditions noted are these: 400 nM substrate, 0.03 μg/ml GSK3α; read-out: ATP EC50 (ATP titration) GSK3α.
Procedure: To each well of a 384 well plate, 5 μl of 2X substrate/2X enzyme in 1X kinase reaction buffer was added. Then, 5 μl of 2X ATP in 1X kinase reaction buffer was added in order to initiate the kinase reaction. The plate was briefly mixed and the 10 μl kinase reaction was allowed to incubate for 60 minutes at room temperature. To each well, 5 μl of 3X chymotrypsin in development buffer B was added. The plate was briefly mixed and the 15 μl reaction was allowed to incubate for 60 minutes at room temperature. To each well, 5 μl of 4X Tb-labeled SA in stop buffer was added. The plate was briefly mixed and the 20 μl reactions read. […] The dichroic 2 mirror was used. A TR-FRET ratio=Em520/Em495 was calculated. An ATP titration was performed in order to determine the optimal amount of ATP to use per well for subsequent IC50 experiments. […] The assay was carried out using the general assay procedure listed above except with the following modification: a 2X ATP titration series was diluted 2 fold in 1X kinase buffer. […] The three fold titration of compounds was performed in a separate 384 well plate in 2X substrate (800 nM, therefore 1X=400 nM)/2X ATP (20 μM, therefore 1X=10 μM) in 1X kinase buffer/3% DMSO. Then 5 μl of the titration series of each compound was added to the appropriate wells in the 384 well assay plate. […]

Experiment [2] concerns the target T2, GSK3β (Homo sapiens, UniProt P49841).
T2 construct: purchased PV3270/29135A
As to the kind of experiment: Z′-Lyte TR-FRET kinase assay, GSK3β. The format is biochemical. The conditions noted are these: 400 nM substrate, 0.25 μg/ml GSK3β; read-out: ATP EC50 (ATP titration) GSK3β. In general terms: Time-resolved FRET reads energy transfer from a long-lived donor to a nearby acceptor.

T1 sequence (P49840 whole entry): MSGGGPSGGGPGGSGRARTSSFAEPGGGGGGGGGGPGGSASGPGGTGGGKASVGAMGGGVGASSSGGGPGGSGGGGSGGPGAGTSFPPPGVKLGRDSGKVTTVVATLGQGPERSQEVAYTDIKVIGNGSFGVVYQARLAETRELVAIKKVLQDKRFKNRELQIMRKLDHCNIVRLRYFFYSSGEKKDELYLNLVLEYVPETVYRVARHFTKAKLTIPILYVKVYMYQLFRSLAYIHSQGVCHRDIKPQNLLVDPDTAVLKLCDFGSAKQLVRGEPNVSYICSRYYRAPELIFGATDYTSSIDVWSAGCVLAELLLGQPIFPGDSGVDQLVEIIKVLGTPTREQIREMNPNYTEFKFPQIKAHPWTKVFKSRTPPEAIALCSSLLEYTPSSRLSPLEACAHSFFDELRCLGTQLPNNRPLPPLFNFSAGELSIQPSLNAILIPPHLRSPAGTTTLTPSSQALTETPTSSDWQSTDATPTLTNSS
T2 sequence (P49841 whole entry): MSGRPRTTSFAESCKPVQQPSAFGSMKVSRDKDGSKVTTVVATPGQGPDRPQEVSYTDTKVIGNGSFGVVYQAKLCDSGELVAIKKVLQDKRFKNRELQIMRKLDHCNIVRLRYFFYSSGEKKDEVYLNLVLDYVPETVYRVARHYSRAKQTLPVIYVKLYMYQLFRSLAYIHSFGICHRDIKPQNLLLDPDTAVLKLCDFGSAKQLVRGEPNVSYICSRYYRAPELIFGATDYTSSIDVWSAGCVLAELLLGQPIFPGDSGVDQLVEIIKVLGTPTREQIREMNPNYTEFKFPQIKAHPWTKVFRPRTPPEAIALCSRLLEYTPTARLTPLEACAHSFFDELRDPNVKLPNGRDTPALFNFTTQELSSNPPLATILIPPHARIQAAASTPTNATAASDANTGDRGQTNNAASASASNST

Regarding `Nc1ncnc2c1ncn2[C@@H]1O[C@H](COP(=O)(O)OP(=O)(O)OP(=O)(O)O)[C@@H](O)[C@H]1O` [ATP], the EC50 in experiment [1] and in experiment [2] was approximately 10 µM each time.
